Test results reported in patent US8354441B2, “Oxazoline derivatives” (Hoffmann-La Roche Inc., priority 2009, dated 2013).

How the values were obtained:
[1] = target: T1, mouse TAAR1 (Mus musculus, UniProt Q923Y8); experiment: TAAR1 radioligand binding with [3H]-rac-2-(1,2,3,4-tetrahydro-1-naphthyl)-2-imidazoline, membranes of stably transfected HEK293 cells; conditions: first value of the cell, read-out: Ki (μM) mouse/rat: mouse
T1 construct: expressed in transfected cells; host or cells: HEK293 (ATCC # CRL-1573), stably transfected with pIRESneo2 expression plasmid
T1 sequence (Q923Y8 whole entry): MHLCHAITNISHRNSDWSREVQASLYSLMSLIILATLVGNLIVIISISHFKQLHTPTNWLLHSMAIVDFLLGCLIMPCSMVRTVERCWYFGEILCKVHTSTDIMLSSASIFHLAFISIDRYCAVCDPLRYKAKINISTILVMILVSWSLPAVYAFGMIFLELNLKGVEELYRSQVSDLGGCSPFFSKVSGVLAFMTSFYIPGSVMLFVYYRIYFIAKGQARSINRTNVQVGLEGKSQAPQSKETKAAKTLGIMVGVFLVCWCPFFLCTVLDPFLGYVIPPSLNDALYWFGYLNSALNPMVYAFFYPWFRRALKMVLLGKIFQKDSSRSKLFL
Experimental: (§1) For the construction of expression plasmids the coding sequences of human, rat and mouse TAAR 1 were amplified from genomic DNA essentially as described by Lindemann et al.. The Expand High Fidelity PCR System (Roche Diagnostics) was used with 1.5 mM Mg^2+ and purified PCR products were cloned into pCR2.1-TOPO cloning vector (Invitrogen) following the instructions of the manufacturer. PCR products were subcloned into the pIRESneo2 vector (BD Clontech, Palo Alto, Calif.), and expression vectors were sequence verified before introduction in cell lines.
(§2) HEK293 cells (ATCC # CRL-1573) were cultured essentially as described by Lindemann et al. (2005). For the generation of stably transfected cell lines HEK293 cells were transfected with the pIRESneo2 expression plasmids containing the TAAR coding sequences (described above) with Lipofectamine 2000 (Invitrogen) according to the instructions of the manufacturer, and 24 hrs post transfection the culture medium was supplemented with 1 mg/ml G418 (Sigma, Buchs, Switzerland). After a culture period of about 10 d clones were isolated, expanded and tested for responsiveness to trace amines (all compounds purchased from Sigma) with the cAMP Biotrak Enzyme immunoassay (EIA) System (Amersham) following the non-acetylation EIA procedure provided by the manufacturer.
(§3) Cells at confluence were rinsed with ice-cold phosphate buffered saline without Ca^2+ and Mg^2+ containing 10 mM EDTA and pelleted by centrifugation at 1000 rpm for 5 min at 4° C. The pellet was then washed twice with ice-cold phosphate buffered saline and the cell pellet was frozen immediately by immersion in liquid nitrogen and stored until use at −80° C. The cell pellet was then suspended in 20 ml HEPES-NaOH (20 mM), pH 7.4 containing 10 mM EDTA, and homogenized with a Polytron (PT 3000, Kinematica) at 10,000 rpm for 10 s. The homogenate was centrifuged at 48,000×g for 30 min at 4° C. and the pellet resuspended in 20 ml HEPES-NaOH (20 mM), pH 7.4 containing 0.1 mM EDTA (buffer A), and homogenized with a Polytron at 10,000 rpm for 10 s. The homogenate was then centrifuged at 48,000×g for 30 min at 4° C. and the pellet resuspended in 20 ml buffer A, and homogenized with a Polytron at 10,000 rpm for 10 s. Protein concentration was determined by the method of Pierce (Rockford, Ill.). The homogenate was then centrifuged at 48,000×g for 10 min at 4° C., resuspended in HEPES-NaOH (20 mM), pH 7.0 including MgCl2 (10 mM) and […] homogenized with a Polytron at 10,000 rpm for 10 s.
(§4) The binding assay was performed at 4° C. in a final volume of 1 ml, and with an incubation time of 30 min. The radioligand [^3H]-rac-2-(1,2,3,4-tetrahydro-1-naphthyl)-2-imidazoline was used at a concentration equal to the calculated Kd value of 60 nM to give a bound at around 0.1% of the total added radioligand concentration, and a specific binding which represented approximately 70-80% of the total binding. Non-specific binding was defined as the amount of [^3H]-rac-2-(1,2,3,4-tetrahydro-1-naphthyl)-2-imidazoline bound in the presence of the appropriate unlabelled ligand (10 μM). Competing ligands were tested in a wide range of concentrations (10 pM-30 μM). […] Each experiment was performed in duplicate. All incubations were terminated by rapid filtration through UniFilter-96 plates (Packard Instrument Company) and glass filter GF/C, pre-soaked for at least 2 h in polyethylenimine 0.3%, and using a Filtermate 96 Cell Harvester (Packard Instrument Company). The tubes and filters were then washed 3 times with 1 ml aliquots of cold buffer B. Filters were not dried and soaked in Ultima gold (45 μl/well, Packard Instrument Company) and bound radioactivity was counted by a TopCount Microplate Scintillation Counter (Packard Instrument Company).

[2] = target: T2, rat TAAR1 (Rattus norvegicus, UniProt Q923Y9); experiment: as above; conditions: second value of the cell, read-out: Ki (μM) mouse/rat: rat
T2 construct: expressed in transfected cells; host or cells: HEK293 (ATCC # CRL-1573), stably transfected with pIRESneo2 expression plasmid
T2 sequence (Q923Y9 whole entry): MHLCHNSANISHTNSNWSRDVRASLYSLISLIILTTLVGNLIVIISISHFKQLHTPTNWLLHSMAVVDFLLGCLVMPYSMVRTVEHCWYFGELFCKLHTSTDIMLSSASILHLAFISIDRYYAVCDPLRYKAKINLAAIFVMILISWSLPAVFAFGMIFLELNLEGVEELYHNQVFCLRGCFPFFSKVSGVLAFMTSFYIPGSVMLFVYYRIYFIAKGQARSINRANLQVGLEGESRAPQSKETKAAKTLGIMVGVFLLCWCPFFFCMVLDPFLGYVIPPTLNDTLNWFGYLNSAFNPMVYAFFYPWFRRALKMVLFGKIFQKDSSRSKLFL
Experimental: as §1, §2, §3, §4

| SMILES | Ki [1] [µM] | Ki [2] [µM] |
| --- | --- | --- |
| NC1=N[C@@H](CCc2ccc(NC(=O)c3ccnc(-c4ccncc4)c3)cc2)CO1 [Example 199, (S)-N-(4-(2-(2-Amino-4,5-dihydrooxazol-4-yl)ethyl)phenyl)-2,4′-bipyridine-4-carboxamide] | 0.0027 | 0.0037 |
| N#Cc1ccc(NC(=O)c2ccc(CC[C@H]3COC(N)=N3)cc2)cc1 [Example 142, (S)-4-(2-(2-Amino-4,5-dihydrooxazol-4-yl)ethyl)-N-(4-cyanophenyl)benzamide] | 0.0044 | 0.0011 |
| C[C@@H]1OC(N)=N[C@H]1CCc1ccc(NC(=O)c2ccc(Cl)cc2)cc1 [Example 205, N-(4-(2-((4S,5S)-2-Amino-5-methyl-4,5-dihydrooxazol-4-yl)ethyl)phenyl)-4-chlorobenzamide] | 0.0007 | 0.0005 |
| NC1=N[C@@H](CCc2ccc(NC(=O)c3ccn(C(F)F)n3)cc2)CO1 [Example 195, (S)-N-(4-(2-(2-Amino-4,5-dihydrooxazol-4-yl)ethyl)phenyl)-1-(difluoromethyl)-1H-pyrazole-3-carboxamide] | 0.0037 | 0.0023 |
| NC1=N[C@@H](CCc2ccc(NC(=O)C3CCCC3)cc2)CO1 [Example 43, Cyclopentanecarboxylic acid {4-[2-((S)-2-amino-4,5-dihydro-oxazol-4-yl)-ethyl]-phenyl}-amide] | 0.0029 | 0.002 |
| NC1=N[C@@H](CCc2ccc(NC(=O)Nc3cccc(Cl)c3)cc2)CO1 [Example 95, 1-{4-[2-((S)-2-Amino-4,5-dihydro-oxazol-4-yl)-ethyl]-phenyl}-3-(3-chloro-phenyl)-urea] | 0.0001 | 0.0001 |
| NC1=N[C@@H](CCc2ccc(NC(=O)c3nc4ccccc4[nH]3)cc2)CO1 [Example 86, 1H-Benzoimidazole-2-carboxylic acid {4-[2-((S)-2-amino-4,5-dihydro-oxazol-4-yl)-ethyl]-phenyl}-amide] | 0.0022 | 0.0006 |
| NC1=N[C@@H](CCc2ccc(NC(=O)c3ccc(OCC(F)(F)F)nc3)cc2)CO1 [Example 113, N-{4-[2-((S)-2-Amino-4,5-dihydro-oxazol-4-yl)-ethyl]-phenyl}-6-(2,2,2-trifluoro-ethoxy)-nicotinamide] | 0.0006 | 0.001 |
| CCOc1ccc(C(=O)Nc2ccc(CC[C@H]3COC(N)=N3)cc2)cc1 [Example 60, N-{4-[2-((S)-2-Amino-4,5-dihydro-oxazol-4-yl)-ethyl]-phenyl}-4-ethoxy-benzamide] | 0.001 | 0.0006 |
| NC1=N[C@@H](CCc2ccc(NC(=O)C3CCCCC3)cc2)CO1 [Example 49, Cyclohexanecarboxylic acid {4-[2-((S)-2-amino-4,5-dihydro-oxazol-4-yl)-ethyl]-phenyl}-amide] | 0.0024 | 0.0036 |
| COc1cncc(C(=O)Nc2ccc(CC[C@H]3COC(N)=N3)cc2)n1 [Example 128, (S)-N-(4-(2-(2-Amino-4,5-dihydrooxazol-4-yl)ethyl)phenyl)-6-methoxypyrazine-2-carboxamide] | 0.0079 | 0.0054 |
| NC1=N[C@@H](CCc2ccc(NC(=O)c3ccc4ccccc4n3)cc2)CO1 [Example 91, Quinoline-2-carboxylic acid {4-[2-((S)-2-amino-4,5-dihydro-oxazol-4-yl)-ethyl]-phenyl}-amide] | 0.0005 | 0.0002 |
| NC1=N[C@@H](CCc2ccc(NC(=O)c3cccc(Br)n3)cc2)CO1 [Example 112, 6-Bromo-pyridine-2-carboxylic acid {4-[2-((S)-2-amino-4,5-dihydro-oxazol-4-yl)-ethyl]-phenyl}-amide] | 0.0013 | 0.0005 |
| CCc1cncc(C(=O)Nc2ccc(CC[C@H]3COC(N)=N3)cc2)n1 [Example 211, (S)-N-(4-(2-(2-Amino-4,5-dihydrooxazol-4-yl)ethyl)phenyl)-6-ethylpyrazine-2-carboxamide] | 0.0023 | 0.0024 |
| NC1=N[C@@H](CCc2ccc(NC(=O)c3ncoc3C3CC3)cc2)CO1 [Example 214, (S)-N-(4-(2-(2-Amino-4,5-dihydrooxazol-4-yl)ethyl)phenyl)-5-cyclopropyloxazole-4-carboxamide] | 0.0011 | 0.0028 |

The remaining lines, values ahead:

| Ki [1] [µM] | Ki [2] [µM] | SMILES |
| --- | --- | --- |
| 0.0091 | 0.0035 | Cn1cc(Cl)c(C(=O)Nc2ccc(CC[C@H]3COC(N)=N3)cc2)n1 [Example 194, (S)-N-(4-(2-(2-Amino-4,5-dihydrooxazol-4-yl)ethyl)phenyl)-4-chloro-1-methyl-1H-pyrazole-3-carboxamide] |
| 0.0014 | 0.0012 | NC1=N[C@@H](CCc2ccc(NC(=O)c3cc(F)cnc3F)cc2)CO1 [Example 107, N-{4-[2-((S)-2-Amino-4,5-dihydro-oxazol-4-yl)-ethyl]-phenyl}-2,5-difluoro-nicotinamide] |
| 0.0057 | 0.0018 | NC1=N[C@@H](CCc2ccc(NC(=O)c3ncc(F)cc3F)cc2)CO1 [Example 87, 3,5-Difluoro-pyridine-2-carboxylic acid {4-[2-((S)-2-amino-4,5-dihydro-oxazol-4-yl)-ethyl]-phenyl}-amide] |
| 0.0002 | 0.0004 | NC1=N[C@@H](CCc2ccc(NC(=O)c3ccc(Cl)cc3)cc2)CO1 [Example 9, N-{4-[2-((S)-2-Amino-4,5-dihydro-oxazol-4-yl)-ethyl]-phenyl}-4-chloro-benzamide] |
| 0.0001 | 0.0003 | NC1=N[C@@H](CCc2ccc(NC(=O)Nc3ccc(Cl)cn3)cc2)CO1 [Example 35, 1-{4-[2-((S)-2-Amino-4,5-dihydro-oxazol-4-yl)-ethyl]-phenyl}-3-(5-chloro-pyridin-2-yl)-urea] |
| 0.0005 | 0.0001 | NC1=N[C@@H](CCc2ccc(NC(=O)c3ccc(Cl)s3)cc2)CO1 [Example 169, (S)-N-(4-(2-(2-Amino-4,5-dihydrooxazol-4-yl)ethyl)phenyl)-5-chlorothiophene-2-carboxamide] |
| 0.0084 | 0.0019 | Cc1cc(C(=O)Nc2ccc(CC[C@H]3COC(N)=N3)cc2)ccn1 [Example 172, (S)-N-(4-(2-(2-Amino-4,5-dihydrooxazol-4-yl)ethyl)phenyl)-2-methylisonicotinamide] |
| 0.0018 | 0.0015 | COc1ccc(C(=O)Nc2ccc(CC[C@H]3COC(N)=N3)cc2)cn1 [Example 97, N-{4-[2-((S)-2-Amino-4,5-dihydro-oxazol-4-yl)-ethyl]-phenyl}-6-methoxy-nicotinamide] |
| 0.0006 | 0.0016 | NC1=N[C@@H](CCc2ccc(NC(=O)c3cnc(Cl)c(Cl)c3)cc2)CO1 [Example 109, N-{4-[2-((S)-2-Amino-4,5-dihydro-oxazol-4-yl)-ethyl]-phenyl}-5,6-dichloro-nicotinamide] |
| 0.004 | 0.0008 | NC1=N[C@@H](CCc2ccc(C(=O)Nc3ccc(Cl)cn3)cc2)CO1 [Example 131, (S)-4-(2-(2-Amino-4,5-dihydrooxazol-4-yl)ethyl)-N-(5-chloropyridin-2-yl)benzamide] |
| 0.0008 | 0.0003 | NC1=N[C@@H](CCc2ccc(NC(=O)c3ccc(F)cc3)cc2)CO1 [Example 16, N-{4-[2-((S)-2-Amino-4,5-dihydro-oxazol-4-yl)-ethyl]-phenyl}-4-fluoro-benzamide] |
| 0.0039 | 0.0033 | Cc1cnc(C(=O)Nc2ccc(CC[C@H]3COC(N)=N3)cc2)cn1 [Example 129, (S)-N-(4-(2-(2-Amino-4,5-dihydrooxazol-4-yl)ethyl)phenyl)-5-methylpyrazine-2-carboxamide] |
